Assay results: US20190105367A1, “ANTIMICROBIAL 4-OXOQUINOLIZINES” (Emergent Product Development Gaithersburg Inc., priority 2011, published 2019)

Key:
[1] = test system: S. aureus BAA-1556 (USA300-Type) (MRSA, FQ-R); assay: MIC, selected panel of bacterial strains (Example 5); format: cell-based, Staphylococcus aureus; settings: MRSA, FQ-R
E. coli ATCC 25922 = assay: as above; format: cell-based, Escherichia coli
B. thailandensis E264 = assay: microbe, parasite or virus in culture; format: cell-based, Burkholderia thailandensis
A. baumannii ATCC 19606 = assay: MIC, selected panel of bacterial strains (Example 5); format: cell-based, Acinetobacter baumannii
P. aeruginosa ATCC 27853 = assay: as above; format: cell-based, Pseudomonas aeruginosa
S. aureus ATCC 25923 = assay: as above; format: cell-based, Staphylococcus aureus
[2] = test system: S. aureus ATCC 43300 (MRSA, FQ-S); assay: as above; format: cell-based, Staphylococcus aureus; settings: MRSA, FQ-S
[3] = test system: K. pneumoniae BAA-2146 (NDM-1, FQ-R); assay: MIC on K. pneumoniae (Example 5); format: cell-based, Klebsiella pneumoniae; settings: quinolone-resistant strain
Protocol: (§1) MIC Values for all compounds were measured against a selection of bacterial strains. The MICs of 4-oxoquinolizines against a selection of Gram-negative and Gram-positive bacterial strains are shown in Table 13 in comparison with known antibiotics.

K. pneumoniae ATCC 33495 = assay: MIC on K. pneumoniae (Example 5); format: cell-based, Klebsiella pneumoniae; settings: sensitive strain
Protocol: as §1

SMILES	MICs against Gram positive bacteria S. aureus BAA-1556 (USA300-Type) (MRSA, FQ-R) [1]	MICs against Gram negative bacteria E. coli ATCC 25922 (E. coli ATCC 25922)	MICs against Gram negative bacteria B. thailandensis E264 (B. thailandensis E264)	MICs against Gram negative bacteria A. baumannii ATCC 19606 (A. baumannii ATCC 19606)	MICs against Gram negative bacteria P. aeruginosa ATCC 27853 (P. aeruginosa ATCC 27853)	MICs against Gram positive bacteria S. aureus ATCC 25923 (S. aureus ATCC 25923)	MICs against Gram positive bacteria S. aureus ATCC 43300 (MRSA, FQ-S) [2]	MICs K. pneumoniae BAA-2146 (NDM-1, FQ-R) [3]	MICs K. pneumoniae ATCC 33495 (K. pneumoniae ATCC 33495)
Cc1c(-c2ccc(CN)cc2)c(F)cn2c(=O)c(C(=O)[O-])cc(C3CC3)c12.[K+] [Compound 6K salt]	1 µg/mL	0.064 to 0.125 µg/mL	4 µg/mL	1 µg/mL	4 to 8 µg/mL	0.125 µg/mL	0.064 µg/mL	–	–
Cc1c(-c2ccc3[nH]ncc3c2)ccn2c(=O)c(C(=O)[O-])cc(C3CC3)c12.[K+] [Compound 35K salt, potassium 8-(1H-indazol-5-yl)-1-cyclopropyl-9-methyl-4-oxo-4H-quinolizine-3-carboxylate]	–	–	–	–	–	–	–	>8 µg/mL	0.125 µg/mL
